Test system: Helicobacter pylori
Test: Antimicrobial activity against Helicobacter pylori-SS1
Type: functional

MIC, 25 µg/mL:
CC1=C2C(=O)c3c(C)coc3C[C@@]2(C)[C@H](O)CC1=O [CHLORANTENE D]
C=C1CCC[C@]2(C)CC[C@@](O)(C(C)C)C(=O)[C@@H]12 [CHLORANTENE G]
C=C[C@]1(C)C(=O)c2occ(C)c2C(=O)[C@H]1C(=C)C [CHLORANTENE F]
C=C1CC/C=C(\C)C(=O)c2occ(C)c2C(=O)C1 [CHLORANTENE E]

Reference: ChEMBL document CHEMBL1151722, “Sesquiterpenoids and phenylpropanoids from Chloranthus serratus” (2008)
